Results reported in ChEMBL document CHEMBL1128565, “Aspartyl alpha-((diphenylphosphinyl)oxy)methyl ketones as novel inhibitors of interleukin-1 beta converting enzyme. Utility of the diphenylphosphinic acid leaving group for the inhibition of cysteine proteases” (J Med Chem, 1995).

What was measured:
[1] = biological target: T1, Caspase-1 (Homo sapiens) (UniProt P29466); test: Inhibition of interleukin-1-beta converting enzyme at pH 7.4, 37 degree C
T1 sequence (whole entry): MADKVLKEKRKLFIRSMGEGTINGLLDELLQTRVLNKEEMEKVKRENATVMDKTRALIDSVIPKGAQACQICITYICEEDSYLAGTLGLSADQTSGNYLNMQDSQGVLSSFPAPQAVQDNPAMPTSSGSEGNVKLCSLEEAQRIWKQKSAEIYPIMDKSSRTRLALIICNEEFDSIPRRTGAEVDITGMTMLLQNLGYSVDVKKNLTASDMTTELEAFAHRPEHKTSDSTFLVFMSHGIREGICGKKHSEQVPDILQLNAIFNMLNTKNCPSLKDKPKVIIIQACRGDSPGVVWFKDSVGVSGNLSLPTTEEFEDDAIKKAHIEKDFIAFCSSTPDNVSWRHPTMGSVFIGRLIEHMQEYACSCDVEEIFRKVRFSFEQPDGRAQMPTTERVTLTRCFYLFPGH

[2] = biological target: Cathepsin B (Homo sapiens) (UniProt P07858); test: Inhibition of Cathepsin B at pH 6.5 and 25 degrees Centigrade.
[3] = biological target: T2, Calpain-1 catalytic subunit (Homo sapiens) (UniProt P07384); test: Inhibition of Human erythrocyte calpain 1 using a continuous assay at pH 7.5 and 8 degrees Centigrade
T2 sequence (whole entry): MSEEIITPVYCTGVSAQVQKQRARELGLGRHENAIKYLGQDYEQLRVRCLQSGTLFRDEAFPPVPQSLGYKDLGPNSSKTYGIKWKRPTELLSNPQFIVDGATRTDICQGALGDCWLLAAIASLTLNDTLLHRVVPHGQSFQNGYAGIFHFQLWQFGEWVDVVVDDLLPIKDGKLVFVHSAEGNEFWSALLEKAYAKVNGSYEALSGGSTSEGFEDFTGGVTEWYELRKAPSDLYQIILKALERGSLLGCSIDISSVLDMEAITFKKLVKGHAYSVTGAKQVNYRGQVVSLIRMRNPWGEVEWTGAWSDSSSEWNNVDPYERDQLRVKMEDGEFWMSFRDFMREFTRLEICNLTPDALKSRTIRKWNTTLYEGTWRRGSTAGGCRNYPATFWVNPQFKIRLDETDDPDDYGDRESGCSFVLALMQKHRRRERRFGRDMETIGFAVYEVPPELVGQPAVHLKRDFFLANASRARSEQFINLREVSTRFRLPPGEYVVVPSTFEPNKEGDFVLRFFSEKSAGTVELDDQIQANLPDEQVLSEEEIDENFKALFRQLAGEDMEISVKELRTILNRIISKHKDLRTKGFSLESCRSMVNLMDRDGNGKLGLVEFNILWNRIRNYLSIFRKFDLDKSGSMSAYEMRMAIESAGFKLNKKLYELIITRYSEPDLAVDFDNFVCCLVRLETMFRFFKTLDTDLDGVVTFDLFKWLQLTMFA

[4] = biological target: T2, Calpain-1 catalytic subunit (Homo sapiens); test: Inhibition of Human erythrocyte calpain 1 using a continuous assay at pH 7.5 and 8 degrees Centigrade.
[5] = biological target: Procathepsin L (Homo sapiens) (UniProt P07711); test: Inhibitory activity against Cathepsin L at 8 degrees Centigrade.
Procathepsin L (Homo sapiens), sequence (P07711 114-333 limits assumed): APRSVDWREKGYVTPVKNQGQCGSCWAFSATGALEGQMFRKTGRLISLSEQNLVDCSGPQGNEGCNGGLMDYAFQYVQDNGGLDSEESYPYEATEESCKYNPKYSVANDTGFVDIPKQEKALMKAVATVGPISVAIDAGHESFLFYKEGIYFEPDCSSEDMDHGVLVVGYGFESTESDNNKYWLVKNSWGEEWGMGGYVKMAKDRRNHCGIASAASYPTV

[6] = biological target: Cathepsin B (Homo sapiens) (UniProt P07858); test: Inhibition of Cathepsin B at 8 degrees Centigrade.
[7] = biological target: Cathepsin B (Homo sapiens) (UniProt P07858); test: Inhibition of Cathepsin B at pH 6.5 and 250 (1/M 1/s) 8 degrees Centigrade.
[8] = biological target: Cathepsin B (Homo sapiens) (UniProt P07858); test: Inhibition of Cathepsin B at pH 6.5 and 360000 (1/M 1/s) at 8 degrees Centigrade.

| Structure (SMILES) | K obs / 1 [1] [M⁻¹ s⁻¹] | K obs / 1 [2] [M⁻¹ s⁻¹] | further results |
| --- | --- | --- | --- |
| O=C(O)C[C@H](NC(=O)OCc1ccccc1)C(=O)COP(=O)(c1ccccc1)c1ccccc1 | 11800 |  |  |
| CC(C)[C@H](NC(=O)OCc1ccccc1)C(=O)N[C@@H](C)C(=O)N[C@@H](CC(=O)O)C(=O)COP(=O)(c1ccc(Cl)cc1)c1ccc(Cl)cc1 | 230000 |  |  |
| CC(C)[C@@H](NC(=O)OCc1ccccc1)C(=O)N[C@@H](CC(=O)O)C(=O)COP(=O)(c1ccccc1)c1ccccc1 | 50200 | < 500 |  |
| CC(C)[C@H](NC(=O)OCc1ccccc1)C(=O)N[C@@H](C)C(=O)N[C@@H](CC(=O)O)C(=O)COP(=O)(c1ccccc1)c1ccccc1 |  | 1700 |  |
| CC(C)C[C@@H](NC(=O)OCc1ccccc1)C(=O)N[C@@H](Cc1ccccc1)C(=O)COP(=O)(c1ccccc1)c1ccccc1 | < 500 | < 500 | K obs / 1 [3]: 10000 M⁻¹ s⁻¹ |
| CC(C)C[C@@H](NC(=O)OCc1ccccc1)C(=O)N[C@@H](Cc1ccccc1)C(=O)COc1cc(C(F)(F)F)nn1-c1ccccc1 |  | < 500 | K obs / 1 [4]: < 500 M⁻¹ s⁻¹ |
| CC(C)C[C@@H](NC(=O)[C@@H](C)NC(=O)OCc1ccccc1)C(=O)N[C@H](Cc1ccccc1)C(=O)COC(=O)c1c(F)ccc(OCCN2CCOCC2)c1F |  |  | K obs / 1 [3]: 32000 M⁻¹ s⁻¹; K obs / 1 [5]: 28000 M⁻¹ s⁻¹; K obs / 1 [6]: 400 M⁻¹ s⁻¹ |
| CC(C)[C@@H](NC(=O)OCc1ccccc1)C(=O)N[C@@H](CC(=O)O)C(=O)CO[PH](=O)c1ccccc1 (some centres not stated) | < 500 |  |  |
| C[C@H](NC(=O)[C@@H](Cc1ccccc1)NC(=O)OCc1ccccc1)C(=O)COc1cc(C(F)(F)F)nn1-c1ccccc1 | < 500 | 2300 | K obs / 1 [4]: < 500 M⁻¹ s⁻¹ |
| CC(C)[C@@H](NC(=O)OCc1ccccc1)C(=O)N[C@@H](CC(=O)O)C(=O)COC(=O)c1c(Cl)cccc1Cl | 30000 |  |  |
| CC(C)C[C@@H](NC(=O)OCc1ccccc1)C(=O)N[C@@H](Cc1ccccc1)C(=O)COC(=O)c1c(Cl)cccc1Cl |  |  | K obs / 1 [4]: 11400 M⁻¹ s⁻¹; K obs / 1 [7]: < 1000 M⁻¹ s⁻¹ |
| C[C@H](NC(=O)[C@@H](Cc1ccccc1)NC(=O)OCc1ccccc1)C(=O)COC(=O)c1c(Cl)cccc1Cl | < 500 |  | K obs / 1 [3]: 300 M⁻¹ s⁻¹; K obs / 1 [8]: 1.5e+06 M⁻¹ s⁻¹ |
| CC(C)[C@@H](NC(=O)OCc1ccccc1)C(=O)N[C@@H](CC(=O)O)C(=O)COc1cc(C(F)(F)F)nn1-c1ccccc1 | 20000 | < 500 |  |
| CC(C)[C@@H](NC(=O)OCc1ccccc1)C(=O)N[C@@H](CC(=O)O)C(=O)COP(C)(C)=O | 12300 |  |  |
| CC(C)[C@@H](NC(=O)OCc1ccccc1)C(=O)N[C@@H](CC(=O)O)C(=O)COP(=O)(c1ccc(Cl)cc1)c1ccc(Cl)cc1 | 77300 |  |  |
| CC(C)C[C@@H](NC(=O)[C@@H](C)NC(=O)OCc1ccccc1)C(=O)N[C@H](Cc1ccccc1)C(=O)COC(=O)c1c(F)cccc1F |  |  | K obs / 1 [3]: 31000 M⁻¹ s⁻¹; K obs / 1 [5]: 300 M⁻¹ s⁻¹; K obs / 1 [6]: 100 M⁻¹ s⁻¹ |
| C[C@H](NC(=O)[C@@H](Cc1ccccc1)NC(=O)OCc1ccccc1)C(=O)COP(=O)(c1ccccc1)c1ccccc1 | < 500 | 400000 |  |
